Where two headings read alike, the source gives them in different places.

The term inhibition denotes the percentage by which the read-out fell short of the control. A high value points to a response far below the control. For orientation: IC50 means the concentration at which inhibition is half-maximal. Low readings indicate higher potency, high ones lower potency. The ED50 is the midpoint of the dose-response relation.

Test [1] has as its system Arthus reaction (paw volume increase) in rats. Nature of the test: Reverse passive Arthus reaction. Format: in vivo, rat (male Sprague-Dawley). The note with it: 60 mg/kg orally. Here is the method:
b) Reverse passive Arthus reaction
Male Sprague-Dawley rats having a body weight between 100 and 120 g. which had been divided into groups of 8 animals in each case, were used as experimental animals. The animals received a subplantar injection in the left hind paw of 0.5 mg of immunoglobulin in 0.1 ml of a sodium chloride solution 1 hour after oral administration of the test substance. After 4 hours, the Arthus reaction was measured, the percentage change in the paw volume increase compared to that of the control group treated only with vehicle being used as a measuring parameter for the action.

The next test has as its target T1, cyclooxygenase (Ovis aries, UniProt P05979).
T1 construct: microsomal cyclooxygenase system (fraction from sheep seminal vesicles, Paesel, Frankfurt, Germany); purchased Paesel, Frankfurt, Germany; host or cells: sheep seminal vesicles (microsomal fraction)
T1 sequence (P05979 25-600): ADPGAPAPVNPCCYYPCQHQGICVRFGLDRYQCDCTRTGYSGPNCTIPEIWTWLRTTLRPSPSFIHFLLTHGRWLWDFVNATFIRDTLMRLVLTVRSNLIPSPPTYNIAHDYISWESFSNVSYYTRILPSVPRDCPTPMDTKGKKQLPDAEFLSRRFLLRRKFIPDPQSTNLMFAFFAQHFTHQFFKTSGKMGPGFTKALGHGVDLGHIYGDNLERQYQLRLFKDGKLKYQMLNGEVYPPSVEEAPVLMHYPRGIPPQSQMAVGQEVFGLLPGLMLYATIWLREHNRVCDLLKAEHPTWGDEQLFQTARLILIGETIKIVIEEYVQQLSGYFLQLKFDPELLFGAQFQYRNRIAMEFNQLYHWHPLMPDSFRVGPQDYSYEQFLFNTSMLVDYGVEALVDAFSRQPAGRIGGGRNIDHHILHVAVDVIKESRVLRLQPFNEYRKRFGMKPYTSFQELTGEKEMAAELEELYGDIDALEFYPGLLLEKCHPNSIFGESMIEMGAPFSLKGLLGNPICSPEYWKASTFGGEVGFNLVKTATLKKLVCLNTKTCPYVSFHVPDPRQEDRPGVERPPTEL
Put plainly: Cyclooxygenase (microsomes) inhibition in vitro. The format is biochemical, sheep. As to conditions: at 100 μM. Here is the method:
(§1) The inhibitory action of the compounds according to the invention is measured on the in vitro arachidonic acid degradation catalyzed by cyclooxycenase and lipoxycenase with the aid of the test systems described in Weithmann and Alpermann, Arzneim.-Forsch. 1985, 35, 947: The cyclooxygenase-catalyzed synthesis of prostaglandins from arachidonic acid is measured in the microsomal cyclooxygenase system (fraction from sheep seminal vesicles, Paesel, Frankfurt, Germany). The coenzyme is adrenaline, whose conversion to adrenochrome is monitored by spectrophotometry at 492 nm. Cis-9-cis-12-linoleic acid is incubated with lipoxygenase (L7127, Sigma, Deisenhofen, Germany) in the lipoxygenase system in vitro and the formation of conjugated double bonds taking place during the oxygenation reaction is monitored optically at 234 nm.
The inhibitor actions, or the inhibitor concentrations necessary for a 50 % inhibition of enzyme activity (IC50 values), have been determined for the following examples according to the invention:
Cyclooxygenase (microsomes)

For the next test, the target named is T2, lipoxygenase (Glycine max, UniProt P08170).
T2 construct: purchased Sigma, Deisenhofen, Germany L7127
T2 sequence (P08170 1-839): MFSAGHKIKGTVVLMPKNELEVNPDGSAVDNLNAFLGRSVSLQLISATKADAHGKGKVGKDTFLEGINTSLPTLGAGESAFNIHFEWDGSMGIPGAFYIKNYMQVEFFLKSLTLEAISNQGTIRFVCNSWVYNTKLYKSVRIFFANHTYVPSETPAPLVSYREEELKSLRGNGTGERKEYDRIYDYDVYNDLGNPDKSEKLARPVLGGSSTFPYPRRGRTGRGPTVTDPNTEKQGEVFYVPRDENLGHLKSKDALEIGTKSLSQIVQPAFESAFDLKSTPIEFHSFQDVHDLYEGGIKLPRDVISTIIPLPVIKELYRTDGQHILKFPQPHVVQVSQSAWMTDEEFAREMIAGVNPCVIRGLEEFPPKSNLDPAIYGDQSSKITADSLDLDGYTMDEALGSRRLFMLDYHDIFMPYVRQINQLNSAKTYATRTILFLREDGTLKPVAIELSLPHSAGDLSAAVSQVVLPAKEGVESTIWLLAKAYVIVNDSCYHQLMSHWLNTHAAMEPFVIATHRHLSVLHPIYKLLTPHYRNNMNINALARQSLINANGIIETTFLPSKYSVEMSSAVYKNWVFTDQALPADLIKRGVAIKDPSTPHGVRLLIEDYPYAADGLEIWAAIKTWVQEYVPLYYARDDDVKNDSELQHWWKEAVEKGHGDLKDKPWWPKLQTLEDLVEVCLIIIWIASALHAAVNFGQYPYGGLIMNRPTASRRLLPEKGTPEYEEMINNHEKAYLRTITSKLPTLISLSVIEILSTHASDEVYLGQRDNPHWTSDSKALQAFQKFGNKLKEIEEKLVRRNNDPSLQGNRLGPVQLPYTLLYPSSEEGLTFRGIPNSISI
Nature of the test: Lipoxygenase (enzyme) inhibition in vitro. The format is biochemical. As to conditions: Lipoxygenase (enzyme). Here is the method: as §1
The inhibitor actions, or the inhibitor concentrations necessary for a 50 % inhibition of enzyme activity (IC50 values), have been determined for the following examples according to the invention: […]

Test [2] can be described thus: Free radical scavenger properties (reaction with DPPH). The note with it: reaction with DPPH at 20° C.; determined graphically. The method, then:
a) Free radical scavenger properties The testing in this test, which allows conclusions on the antioxidative potential of a substance, was carried out according to Smith et al., Biochem, Pharmacol. 1987. 36, 1456. In this test, the reaction of the compounds according to the invention with the stable free radical 1,1-diphenyl-2-picrylhydrazyl (DPPH) is monitored optically at 20° C. The rate constant K and reaction orders n in Table 5 were determined graphically in the customary manner.
(DPPH is a stable violet radical that fades when it is reduced.)

Test [3] relates to TXB2 formation in mast cell cultures. Put plainly: Influence on formation of TXB2 in mast cell cultures (rat). Format: cell-based. The note with it: read-out: TXB2, Residual activity (%). The method, then:
(§2) Moreover, the substances according to the invention were also characterized in cellular leukocyte systems in vitro as inhibitors of arachidonic acid metabolites. To detect the lipoxygenase metabolites, human neutrophils stimlated by calcium ionophore A 23 187 (70 mcmol/1) were incubated with ^14 C-arachidonic acid (81 mcmol/1) and the principal metabolites formed after 15 minutes at 37° C., such as 5-hydroxyeicosatetraenoic acid (5-HETE) and the more strongly proinflammatory leukotriene B4 (LTB4) were determined quantitatively (Tab. 6) with the aid of a radio monitor after separation by HPLC. The influence on the proinflammatory arachiconic acid metabolites thromboxane and LTB4 in cultures prepared from rat mast cells was determined in a corresponding manner (Tab. 7).

Test [4] has as its system LTB4 formation in mast cell cultures. Put plainly: Influence on formation of LTB4 in mast cell cultures (rat). Format: cell-based. The note with it: read-out: LTB4, Residual activity (%). The method, then: as §2
Test [5] has as its system Adjuvant arthritis (Perper modification; paw volume) in rats. Put plainly: Adjuvant arthritis (Perper modification), paw volume on the 21st day. The format is in vivo, rat (male, Wistar-Lewis strain). As to conditions: Rattus norvegicus, po, 504 h, 1st to 12th day; for inhibition in vivo at 2.5 mg/kg: 2.5 mg/kg/day; for inhibition in vivo at 5 mg/kg: 5 mg/kg/day.
Test [6] has as its system Adjuvant arthritis (paw volume increase) in rats. Put plainly: Adjuvant arthritis (method of Pearson), antiinflammatory action on the 5th day. Format: in vivo, rat (male, Wistar-Lewis strain). The note with it: Rattus norvegicus, 120 h; for ED50: adjuvant arthritis, oral, determined graphically from dose-response curve; for inhibition in vivo at 50 mg/kg: po, 50 mg/kg p.o. once daily, 1st to 5th day, vs untreated control, read-out: Adjuvant arthritis (% inhibition at 50 mg/kg orally). The method, then: The testing of the compounds of the formula I according to the invention for antiinflammatory action, influence on immunopathological processes, oxygen free radicaldeactivating properties and influence on arachidonic acid metabolism was carried out in the animal models and bioassays described in the following.
1. Adjuvant arthritis for influencing the antiinflammatory action (Table 2)
The investigations were carried out by the method of Pearson (Arthrit. Rheum. 1959, 2, 44). Male rats of a Wistar-Lewis strain having a body weight between 130 and 200 g were used as experimental animals. The compounds to be tested were administered orally (p. o.) once daily from the 1st to the 5th experimental day in doses of 50 mg per kg of body weight. The animals of one control group received only the vehicle. Each preparation group and the control group comprised 8 animals. The percentage reduction of the paw volume increase compared to that of the untreated control group was used as the criterion of action. The ED50 values were determined graphically from the dose-response curve.
4-(3,5-Di-tert.-butyl-4-hydroxyphenyl)-2-methylthiazole i.e. the compound of the formula [drawing 26] according to US-A-4,535,165 mentioned at the beginning, was additionally included in this and the investigation below as a comparison preparation.

For test [7], the system named is LTB4 formation in human neutrophils. Nature of the test: Influence on LTB4 formation in human neutrophils. The format is cell-based. The note with it: Neutrophil. The method, then: as §2
In test [8] the test system is 5-HETE formation in human neutrophils. Put plainly: Influence on 5-HETE formation in human neutrophils. The format is cell-based. The note with it: Neutrophil. Here is the method: as §2
Setting [9] is: read-out: % inhibition on the 21st day, Left paw.
Setting [10] is: read-out: % inhibition on the 21st day, Right paw.

Turning to `CCOC(=O)Cc1nc(-c2cc(C(C)(C)C)c(O)c(C(C)(C)C)c2)cs1` [Example 8], the “% inhibition (Arthus reaction)” value in test [1] amounted to 38%. Moreover, at 100 µM the inhibition against cyclooxygenase was 75%. In addition, half-maximal inhibition on lipoxygenase (IC50) required 50 µM. Further, the reaction order n in test [2] is reported as 1.

As for `CC(C)(C)c1cc(-c2csc(CCC(=O)O)n2)cc(C(C)(C)C)c1O` [Example 3, 3-[4-(3,5-Di-tert.-butyl-4-hydroxyphenyl)thiazol-2-yl]propionic acid], the results for the activity at 1 µM in test [3] (1 μM) and in test [4] (1 μM) were 113 ± 49% and 94 ± 12%, respectively. The activity at 10 µM in test [3] (10 μM) was determined as 94 ± 17%; in [4] (10 μM), 102 ± 9%. Besides, the values for the activity at 100 µM in [3] (100 μM) and in [4] (100 μM) were 28 ± 10% and 78 ± 14%, respectively. Besides, the reaction order n in test [2] is under 1. Besides, the inhibition in vivo at 2.5 mg/kg in test [5] (setting [9]) worked out at 65%; in test [5] (setting [10]), 59%. Further, the inhibition in vivo at 5 mg/kg was determined as 41% in test [5] (setting [9]) and 74% in test [5] (setting [10]). Also, in test [6], the ED50 came out at 0.9 mg/kg. For the same compound, the inhibition in vivo at 50 mg/kg in [6] was 84%.

Take `CC(C)(C)c1cc(-c2csc(CCC(=O)NO)n2)cc(C(C)(C)C)c1O` [Example 7, 3-[4-(3 .-butyl-4-hydroxyphenyl)thiazol-2-yl]propionylhydroxamic acid]: the activity at 0.1 µM turned out to be 91 ± 13.2% in [7] (0.1 μM, n = 6, read-out: LTB4 formation, Residual activity (%)) and 89.2 ± 12.1% in test [8] (0.1 μM, n = 6, read-out: 5-HETE formation, Residual activity (%)). Also, the activity at 1 µM was determined as 74.3 ± 21.5% in test [7] (1 μM, n = 6, read-out: LTB4 formation, Residual activity (%)) and 87 ± 15.6% in test [8] (1 μM, n = 6, read-out: 5-HETE formation, Residual activity (%)). Further, the activity at 10 µM in test [7] (10 μM, n = 6, read-out: LTB4 formation, Residual activity (%)) amounted to 35 ± 17%; in test [8] (10 μM, n = 6, read-out: 5-HETE formation, Residual activity (%)) it was 39 ± 12.8%. The activity at 100 µM in test [7] (100 μM, n = 9, read-out: LTB4 formation, Residual activity (%)) worked out at 1.7 ± 1.3%; in [8] (100 μM, n = 9, read-out: 5-HETE formation, Residual activity (%)), 1.7 ± 0.4%. On cyclooxygenase, this compound registered an inhibition at 100 µM of 75%. The same compound yielded a reaction order n in test [2] of 1. Besides, the ED50 in [6] is 2.4 mg/kg. Besides, the inhibition in vivo at 50 mg/kg in test [6] worked out at 83%.

For the origin of these results see patent US5137897A, “2-substituted 4-(3-alkyl-5-tert.-butyl-4-hydroxyphenyl) thiazoles, processes for their preparation, pharmaceuticals containing them and their use” (Hoechst Aktiengesllschaft, priority 1989, dated 1992).
